# Source: patent publication US9078859B2, “Use of a synergistic combination of hypothiocyanite and/or hypohalite ions and lactoferrin for preparing a treatment for cystic fibrosis” (ALAXIA, priority 2009, dated 2015)
# Legend:
# Format in all cases: cell-based
# [1] = system: Methicillin Resistant Staphylococcus aureus (MRSA); assay: in vitro contact-time test on MRSA
# Protocol: (§1) The solution from the example was tested in vitro on a mucoid strain of Pseudomonas aeruginosa, Burkholderia cepacia and Methicillin Resistant Staphylococcus Aureus.
# Methicillin Resistant Staphylococcus aureus (MRSA)
# [2] = system: mucoid strain of Pseudomonas aeruginosa; assay: in vitro contact-time test on a mucoid strain of Pseudomonas aeruginosa
# Protocol: as §1
# [3] = system: Burkholderia cepacia; assay: in vitro contact-time test on Burkholderia cepacia
# Protocol: as §1
# Burkholderia cenocepacia J2315 (ATCC BAA 245 known to be resistant to Tobramycin and Colistin (Holden 2009, Soiza 2004)), derived from patients with cystic fibrosis.
structure (smiles),measurement,setting,value
"N#CSO [500 μM OSCN, hypothiocyanite]",bacterial count,[1]; contact time 0 hours,4.15 log CFU/ml
same,bacterial count,[1]; contact time 0.5 hours,3.80 log CFU/ml
same,bacterial count,[1]; contact time 1 hour,3.70 log CFU/ml
same,bacterial count,[1]; contact time 2 hours,3.33 log CFU/ml
same,bacterial count,[1]; contact time 4 hours,2.89 log CFU/ml
same,bacterial count,[1]; contact time 6 hours,2.25 log CFU/ml
same,bacterial count,[1]; contact time 24 hours,1.97 log CFU/ml
same,bacterial count,[2]; contact time 0 hours,4.14 log CFU/ml
same,bacterial count,[2]; contact time 0.5 hours,3.23 log CFU/ml
same,bacterial count,[2]; contact time 1 hour,3.16 log CFU/ml
same,bacterial count,[2]; contact time 2 hours,2.98 log CFU/ml
same,bacterial count,[2]; contact time 4 hours,2.08 log CFU/ml
same,bacterial count,[2]; contact time 6 hours,1.90 log CFU/ml
same,bacterial count,[2]; contact time 24 hours,1.78 log CFU/ml
same,bacterial count,[3]; contact time 0 hours,4.41 log CFU/ml
same,bacterial count,[3]; contact time 0.5 hours,3.64 log CFU/ml
same,bacterial count,[3]; contact time 1 hour,3.56 log CFU/ml
same,bacterial count,[3]; contact time 2 hours,3.03 log CFU/ml
same,bacterial count,[3]; contact time 4 hours,2.08 log CFU/ml
same,bacterial count,[3]; contact time 6 hours,1.98 log CFU/ml
same,bacterial count,[3]; contact time 24 hours,1.78 log CFU/ml
